According to ChEMBL document CHEMBL1154202, “Arylcarboxyamino-substituted diaryl ureas as potent and selective FLT3 inhibitors” (Bioorg Med Chem Lett, 2009):
Activity calls are given as the source filed them. The calls are words filed in the database; no cut-off is given here.

What was measured:
[1] = system: MV4-11; test: Antitumor activity against human MV411 cells assessed as inhibition of cell proliferation; format: functional, cell-based
[2] = biological target: T1, Receptor-type tyrosine-protein kinase FLT3 (Homo sapiens, UniProt P36888)
T1 sequence (P36888 whole entry): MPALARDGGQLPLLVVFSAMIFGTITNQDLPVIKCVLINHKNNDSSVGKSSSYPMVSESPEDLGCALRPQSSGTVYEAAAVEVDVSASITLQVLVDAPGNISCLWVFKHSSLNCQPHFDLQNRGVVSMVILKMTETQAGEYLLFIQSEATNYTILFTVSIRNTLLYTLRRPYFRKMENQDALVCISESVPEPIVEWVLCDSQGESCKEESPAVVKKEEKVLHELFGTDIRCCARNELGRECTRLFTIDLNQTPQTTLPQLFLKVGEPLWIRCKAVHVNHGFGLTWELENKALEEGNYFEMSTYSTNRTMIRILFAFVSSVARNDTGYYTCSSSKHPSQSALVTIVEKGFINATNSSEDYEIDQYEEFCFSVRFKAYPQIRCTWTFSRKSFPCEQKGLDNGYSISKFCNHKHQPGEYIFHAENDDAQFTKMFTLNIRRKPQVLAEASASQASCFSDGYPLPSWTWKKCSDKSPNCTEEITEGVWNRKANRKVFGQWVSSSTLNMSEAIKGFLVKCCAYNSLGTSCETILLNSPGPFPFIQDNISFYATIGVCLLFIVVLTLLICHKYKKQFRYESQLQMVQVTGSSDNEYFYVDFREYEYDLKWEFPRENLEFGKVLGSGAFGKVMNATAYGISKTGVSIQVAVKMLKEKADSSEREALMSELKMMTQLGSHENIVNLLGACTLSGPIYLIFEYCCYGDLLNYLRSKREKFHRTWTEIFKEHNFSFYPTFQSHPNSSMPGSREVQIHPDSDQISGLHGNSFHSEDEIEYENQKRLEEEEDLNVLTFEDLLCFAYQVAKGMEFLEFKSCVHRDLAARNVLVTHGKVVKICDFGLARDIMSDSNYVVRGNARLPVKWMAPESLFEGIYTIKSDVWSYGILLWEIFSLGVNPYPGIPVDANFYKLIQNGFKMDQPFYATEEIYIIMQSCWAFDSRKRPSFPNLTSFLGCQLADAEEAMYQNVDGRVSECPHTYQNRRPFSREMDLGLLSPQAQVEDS

[3] = biological target: Platelet-derived growth factor receptor beta (Homo sapiens, UniProt P09619); test: Binding affinity to PDGFRbeta
Chain of Platelet-derived growth factor receptor beta (P09619 whole entry): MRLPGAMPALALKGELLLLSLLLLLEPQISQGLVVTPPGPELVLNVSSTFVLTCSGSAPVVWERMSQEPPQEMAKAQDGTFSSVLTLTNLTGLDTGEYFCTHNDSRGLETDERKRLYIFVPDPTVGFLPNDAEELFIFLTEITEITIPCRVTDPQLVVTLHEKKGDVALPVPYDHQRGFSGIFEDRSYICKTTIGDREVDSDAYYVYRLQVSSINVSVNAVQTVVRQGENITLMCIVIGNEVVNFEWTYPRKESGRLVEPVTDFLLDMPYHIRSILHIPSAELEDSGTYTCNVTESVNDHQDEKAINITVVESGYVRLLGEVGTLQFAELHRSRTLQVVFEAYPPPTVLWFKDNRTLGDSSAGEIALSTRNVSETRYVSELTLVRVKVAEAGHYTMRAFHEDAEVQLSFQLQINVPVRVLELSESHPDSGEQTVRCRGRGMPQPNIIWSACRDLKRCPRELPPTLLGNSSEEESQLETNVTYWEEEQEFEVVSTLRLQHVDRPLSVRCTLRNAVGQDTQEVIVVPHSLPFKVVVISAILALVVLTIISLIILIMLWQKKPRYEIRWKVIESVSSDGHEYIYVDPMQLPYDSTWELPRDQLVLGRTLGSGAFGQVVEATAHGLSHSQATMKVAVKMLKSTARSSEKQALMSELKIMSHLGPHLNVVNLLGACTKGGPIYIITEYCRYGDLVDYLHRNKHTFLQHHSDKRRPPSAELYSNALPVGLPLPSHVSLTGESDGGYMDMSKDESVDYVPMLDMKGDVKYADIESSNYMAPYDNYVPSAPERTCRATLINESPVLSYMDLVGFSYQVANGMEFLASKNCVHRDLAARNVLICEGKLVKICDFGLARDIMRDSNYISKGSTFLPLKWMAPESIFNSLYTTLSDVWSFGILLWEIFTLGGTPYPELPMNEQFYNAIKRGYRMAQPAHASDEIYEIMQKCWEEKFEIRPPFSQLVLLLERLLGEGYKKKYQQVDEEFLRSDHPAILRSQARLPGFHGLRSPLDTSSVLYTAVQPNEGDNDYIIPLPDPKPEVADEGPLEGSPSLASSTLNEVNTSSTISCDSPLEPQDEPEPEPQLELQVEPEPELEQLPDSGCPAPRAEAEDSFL

[4] = biological target: Macrophage colony-stimulating factor 1 receptor (Homo sapiens, UniProt P07333); test: Binding affinity to CSF1R
Chain of Macrophage colony-stimulating factor 1 receptor (P07333 whole entry): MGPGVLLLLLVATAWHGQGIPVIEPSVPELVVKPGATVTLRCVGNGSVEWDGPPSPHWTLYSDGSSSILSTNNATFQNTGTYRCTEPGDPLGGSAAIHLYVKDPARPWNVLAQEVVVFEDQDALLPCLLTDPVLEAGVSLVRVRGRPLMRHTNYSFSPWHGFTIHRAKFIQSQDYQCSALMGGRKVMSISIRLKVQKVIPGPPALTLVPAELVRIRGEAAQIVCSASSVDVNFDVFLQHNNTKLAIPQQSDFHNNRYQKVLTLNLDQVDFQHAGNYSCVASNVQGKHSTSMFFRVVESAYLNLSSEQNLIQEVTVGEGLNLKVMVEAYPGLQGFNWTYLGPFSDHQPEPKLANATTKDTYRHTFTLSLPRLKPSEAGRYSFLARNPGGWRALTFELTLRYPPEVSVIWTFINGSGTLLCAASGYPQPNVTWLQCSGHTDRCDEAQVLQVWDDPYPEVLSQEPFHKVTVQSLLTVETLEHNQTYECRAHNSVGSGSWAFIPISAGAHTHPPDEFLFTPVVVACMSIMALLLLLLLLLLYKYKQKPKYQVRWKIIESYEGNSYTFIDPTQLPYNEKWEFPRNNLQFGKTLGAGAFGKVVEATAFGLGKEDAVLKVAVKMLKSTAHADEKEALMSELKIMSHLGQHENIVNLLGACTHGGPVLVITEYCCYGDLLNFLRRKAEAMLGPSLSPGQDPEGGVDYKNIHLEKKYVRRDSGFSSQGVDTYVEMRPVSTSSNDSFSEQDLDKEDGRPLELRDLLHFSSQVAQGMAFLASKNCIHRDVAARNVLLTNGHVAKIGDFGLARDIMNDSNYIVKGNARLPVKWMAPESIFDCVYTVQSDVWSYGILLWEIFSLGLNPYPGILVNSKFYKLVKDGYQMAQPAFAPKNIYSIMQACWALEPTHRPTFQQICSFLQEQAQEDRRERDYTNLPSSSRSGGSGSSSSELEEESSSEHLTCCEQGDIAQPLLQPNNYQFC

[5] = biological target: Proto-oncogene tyrosine-protein kinase receptor Ret (Homo sapiens, UniProt P07949); test: Binding affinity to RET
Chain of Proto-oncogene tyrosine-protein kinase receptor Ret (P07949 whole entry): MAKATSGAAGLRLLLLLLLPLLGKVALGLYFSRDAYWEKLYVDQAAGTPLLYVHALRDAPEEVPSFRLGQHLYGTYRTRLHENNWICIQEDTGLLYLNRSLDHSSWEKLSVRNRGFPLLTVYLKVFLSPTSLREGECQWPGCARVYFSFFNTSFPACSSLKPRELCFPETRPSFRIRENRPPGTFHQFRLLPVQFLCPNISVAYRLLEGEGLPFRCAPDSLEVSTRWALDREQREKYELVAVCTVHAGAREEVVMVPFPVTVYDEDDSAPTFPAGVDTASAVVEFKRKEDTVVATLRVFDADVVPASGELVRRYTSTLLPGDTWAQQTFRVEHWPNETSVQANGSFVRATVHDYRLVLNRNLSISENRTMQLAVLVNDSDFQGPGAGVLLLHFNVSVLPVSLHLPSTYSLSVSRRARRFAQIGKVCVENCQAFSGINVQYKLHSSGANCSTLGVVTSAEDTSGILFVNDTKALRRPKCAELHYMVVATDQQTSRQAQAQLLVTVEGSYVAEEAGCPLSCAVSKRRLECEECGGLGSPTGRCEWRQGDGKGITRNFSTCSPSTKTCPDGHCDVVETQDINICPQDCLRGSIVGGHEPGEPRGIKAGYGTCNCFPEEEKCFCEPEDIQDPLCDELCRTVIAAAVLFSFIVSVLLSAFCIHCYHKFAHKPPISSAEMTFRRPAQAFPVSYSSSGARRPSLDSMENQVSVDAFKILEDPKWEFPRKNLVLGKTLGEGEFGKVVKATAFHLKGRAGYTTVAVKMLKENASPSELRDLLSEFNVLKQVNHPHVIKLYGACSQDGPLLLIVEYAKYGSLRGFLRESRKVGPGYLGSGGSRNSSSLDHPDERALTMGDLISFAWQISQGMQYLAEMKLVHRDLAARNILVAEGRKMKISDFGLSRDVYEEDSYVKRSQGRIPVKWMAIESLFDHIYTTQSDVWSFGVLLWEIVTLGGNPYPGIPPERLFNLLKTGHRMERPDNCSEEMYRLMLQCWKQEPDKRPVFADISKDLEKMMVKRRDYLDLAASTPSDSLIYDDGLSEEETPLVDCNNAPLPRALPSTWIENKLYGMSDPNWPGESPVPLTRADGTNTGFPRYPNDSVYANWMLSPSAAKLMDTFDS

[6] = biological target: Mast/stem cell growth factor receptor Kit (Homo sapiens, UniProt P10721); test: Binding affinity to KIT
Chain of Mast/stem cell growth factor receptor Kit (P10721 whole entry): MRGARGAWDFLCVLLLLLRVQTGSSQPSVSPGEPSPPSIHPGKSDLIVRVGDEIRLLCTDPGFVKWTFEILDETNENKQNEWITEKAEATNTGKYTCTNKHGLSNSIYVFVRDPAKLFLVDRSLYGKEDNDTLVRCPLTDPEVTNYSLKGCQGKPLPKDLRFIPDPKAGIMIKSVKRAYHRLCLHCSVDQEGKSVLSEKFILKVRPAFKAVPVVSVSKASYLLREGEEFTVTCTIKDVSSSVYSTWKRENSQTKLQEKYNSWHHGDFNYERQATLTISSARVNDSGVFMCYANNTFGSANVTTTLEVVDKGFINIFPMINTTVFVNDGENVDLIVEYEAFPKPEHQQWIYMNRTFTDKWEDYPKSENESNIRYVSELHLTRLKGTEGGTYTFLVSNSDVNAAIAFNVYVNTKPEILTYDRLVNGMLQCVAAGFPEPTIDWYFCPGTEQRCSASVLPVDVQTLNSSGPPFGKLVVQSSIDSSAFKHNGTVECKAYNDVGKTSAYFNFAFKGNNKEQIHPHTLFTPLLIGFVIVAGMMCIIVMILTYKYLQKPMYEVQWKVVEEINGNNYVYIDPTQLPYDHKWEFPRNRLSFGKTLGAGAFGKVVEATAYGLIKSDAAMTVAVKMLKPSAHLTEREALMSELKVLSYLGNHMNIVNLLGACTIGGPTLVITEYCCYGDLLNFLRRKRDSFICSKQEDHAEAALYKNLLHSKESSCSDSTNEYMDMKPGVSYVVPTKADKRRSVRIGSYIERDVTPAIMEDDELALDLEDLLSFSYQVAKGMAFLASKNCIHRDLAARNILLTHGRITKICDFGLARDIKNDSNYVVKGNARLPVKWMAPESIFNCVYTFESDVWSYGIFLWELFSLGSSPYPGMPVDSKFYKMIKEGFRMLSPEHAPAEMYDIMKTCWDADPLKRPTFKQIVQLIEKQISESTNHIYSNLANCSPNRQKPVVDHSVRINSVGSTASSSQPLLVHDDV

[7] = biological target: Vascular endothelial growth factor receptor 2 (Homo sapiens, UniProt P35968); test: Binding affinity to VEGFR2
[8] = system: MV4-11; test: Antitumor activity against human MV411 cells in xenografted athymic nude mouse model assessed as decrease in tumor size at 10 mg/kg, po qd for 28 days measured after 36 to 56 days; format: functional, organism-based; set-up: dose 10 mg/kg
[9] = system: Mus musculus; test: Toxicity in human MV411 cells in xenografted athymic nude mouse model assessed as change in body weight at 10 mg/kg, po qd for 28 days; format: organism-based, MV4-11; set-up: dose 10 mg/kg, route oral; settings: in vivo, 672 h
[10] = Cmax in nude mouse at 10 mg/kg, po; format: ADME, organism-based; set-up: dose 10 mg/kg, route oral; settings: in vivo
[11] = Half life in nude mouse at 10 mg/kg, po; format: ADME, organism-based; set-up: dose 10 mg/kg, route oral; settings: in vivo
[12] = system: Mus musculus; test: AUC in nude mouse at 10 mg/kg, po; format: ADME, organism-based, Plasma; set-up: dose 10 mg/kg, route oral; settings: in vivo
[13] = system: MV4-11; test: Antitumor activity against human MV411 cells in xenografted athymic nude mouse model assessed as decrease in tumor size at 10 mg/kg, po qd for 28 days measured after 29 to 36 days; format: functional
[14] = system: MV4-11; test: Antitumor activity against human MV411 cells in xenografted athymic nude mouse model assessed as decrease in tumor size at 30 mg/kg, po qd for 28 days; format: functional, organism-based; set-up: dose 30 mg/kg
[15] = system: MV4-11; test: Antitumor activity against human MV411 cells in xenografted athymic nude mouse model assessed as decrease in tumor size at 10 mg/kg, po qd for 28 days; format: functional, organism-based; set-up: dose 10 mg/kg

IC50 [1] [nM]	Kd [2] [nM]	SMILES	other results
30	0.98	CC(C)(C)c1cc(NC(=O)Nc2ccc(NC(=O)c3ccccc3)cc2)no1	
101	7.4	CC(C)(C)c1cc(NC(=O)Nc2ccc(C(=O)Nc3ccccc3)cc2)no1	
3.1	0.75	CC(C)(C)c1cc(NC(=O)Nc2ccc(NC(=O)c3ccc4ccccc4c3)cc2)no1	
46.7	2.5	CC(C)(C)c1cc(NC(=O)Nc2ccc(NC(=O)c3cccc(O)n3)cc2)no1	
1.6	0.76	CC(C)(C)c1cc(NC(=O)Nc2ccc(NC(=O)c3ccccn3)cc2)no1	
0.29		CC(C)(C)c1cc(NC(=O)Nc2ccc(NC(=O)c3cc4ccccc4cn3)cc2)no1	Kd [7]: > 200 nM; Kd [3]: 7 nM; Activity [8]: inactive; Activity [9]: < 5%; Cmax [10]: 1310 nM; half-life [11]: 2.2 h; AUC [12]: 4.25 µM·h; Kd [5]: 7.3 nM; Kd [6]: 1.8 nM; Activity [13]: 90 mm3
199	25	CC(C)(C)c1cc(NC(=O)Nc2ccc(C(=O)Nc3cccnc3)cc2)no1	
159	15	CC(C)(C)c1cc(NC(=O)Nc2ccc(NC(=O)c3cccnc3)cc2)no1	
		CCN(CC)CCNC(=O)c1c(C)[nH]c(/C=C2\C(=O)Nc3ccc(F)cc32)c1C	Activity [14]: Active; Activity [13]: Active
0.85	0.77	Cc1ccc2sc(C(=O)Nc3ccc(NC(=O)Nc4cc(C(C)(C)C)on4)cc3)cc2c1	
104	8.15	CC(C)(C)c1cc(NC(=O)Nc2ccc(C(=O)Nc3ccccn3)cc2)no1	
10500	240	CC(C)(C)c1cc(NC(=O)Nc2ccc(NC(=O)C3CCNCC3)cc2)no1	
1090	510	CC(C)(C)c1cc(NC(=O)Nc2ccc(NC(=O)Cc3ccccc3)cc2)no1	
132	10.1	CC(C)(C)c1cc(NC(=O)Nc2ccc(NC(=O)c3ccncc3)cc2)no1	
414	38.4	CC(C)(C)c1cc(NC(=O)Nc2ccc(C(=O)Nc3ccncc3)cc2)no1	
2.8	0.74	CC(C)(C)c1cc(NC(=O)Nc2ccc(NC(=O)c3nccc4ccccc34)cc2)no1	

SMILES	IC50 [1] [nM]	Kd [2] [nM]	other results
CC(C)(C)c1cc(NC(=O)Nc2ccc(NC(=O)c3ncccc3O)cc2)no1	0.71	0.74	Kd [3]: 2.6 nM; Kd [4]: 4.4 nM; Kd [5]: 4.7 nM; Kd [6]: 0.96 nM
CC(C)(C)c1cc(NC(=O)Nc2ccc(NC(=O)c3cn4c(n3)sc3ccccc34)cc2)no1	0.44	1.6	Kd [7]: > 200 nM; Kd [3]: 2.2 nM; Activity [8]: inactive; Kd [4]: 10 nM; Activity [9]: < 5%; Cmax [10]: 2360 nM; half-life [11]: 2.3 h; AUC [12]: 13.2 µM·h; Activity [15]: Active; Kd [5]: 3 nM; Kd [6]: 7.5 nM; Activity [13]: 90 mm3
